Structures are written as SMILES. Like-named read-outs stand apart in the source and are kept apart here.

The test system of assay [1] is sterol biosynthesis in L cells. Nature of the assay: Inhibition of sterol synthesis from [1-14C]acetate in L cell cultures. Type of assay: cell-based. Particulars: Mus musculus, read-out: Concentrations Required for 50% Inhibition of Sterol Synthesis. Here is the method: (§1) The effect of various 15-oxygenated sterols on sterol biosynthesis in L cells and in primary cultures of mouse liver cells was tested essentially under conditions described in detail previously [A. A. Kandutsch and H. W. Chen, J. Biol. Chem., Vol. 248, pp. 8408-8417 (1973) and A. A. Kandutsch and H. W. Chen, J. Biol. Chem., Vol. 249, pp. 6057-6061 (1974`)].
(§2) The primary liver cell cultures were prepared from 16-day-old (C57BL/6J fetuses and grown in chemically defined medium (serum-free) as described in the above cited publications. The L cells, a subline of NCTC clone 929 mouse fibroblasts, were grown in chemically defined medium (serum-free) as described in the publications. These L cells are transformed fibroblasts which are regarded as malignant since they will grow as tumors if injected into the mouse strain from which they were initially obtained.
(§3) The preparation of steroid-containing media, procedures for assays of the conversion of [1-^14 C]acetate into digitonin-precipitable sterols, fatty acids, and CO2 and methods for the measurement of DNA, protein, and HMG-CoA reductase were as described in the published articles. L cell cultures were preincubated with the 15-oxygenated sterols and their derivatives for 4 hours, then [1-^14 C]acetate was added at a concentration of 4 μmoles per ml (4 μCi per ml); or the L cell cultures were incubated for 5 hours with the 15-oxygenated sterols before they were harvested for determination of microsomal HMG-CoA reductase activity.
(§4) The test compounds were tested over a range of at least 4 concentrations and the assay was repeated until the concentration of test compound required to produce 50% inhibition was located on the steeply declining portion of an activity vs. concentration plot. To diminish any possible effects of generalized differences in cellular metabolism, the rates of sterol synthesis from [1-^14 C]acetate were calculated as the ratio of [^14 C]sterols to [^14 C]fatty acids as described in the two cited articles by Kandutsch and Chen.

Assay [2] relates to sterol biosynthesis in primary cultures of mouse liver cells. Nature of the assay: Inhibition of sterol synthesis from [1-14C]acetate in primary cultures of liver cells. Type of assay: cell-based. Particulars: read-out: Concentrations Required for 50% Inhibition of Sterol Synthesis. Here is the method: as §1, §2, §3
(§5) Conditions for incubating the 15-oxygenated sterols or their derivatives with liver cell cultures were similar to those described for L cell cultures except that the cultures were incubated with the test compounds for 12 hours before labeled acetate was added or before they were harvested for enzyme assay.
as §4

The test system of assay [3] is HMG-CoA reductase. Nature of the assay: Reduction of the activity of HMG-CoA reductase in L cell cultures. Type of assay: cell-based, mouse. Particulars: read-out: Concentrations Required for 50% Reduction of the Activity of HMG-CoA Reductase. On the procedure:
as §2, §3
(§6) A number of the 15-oxygenated sterols have also been tested with respect to their effects on the activity and/or levels of the enzyme HMG-CoA reductase (3-hydroxy-3-methylglutaryl coenzyme A reductase) in the L cells and in the liver cells. As noted previously, this enzyme catalyzes the reduction of 3-hydroxy-3-methylglutaryl coenzyme A to yield mevalonic acid, an essential intermediate in the biosynthesis of sterols and of a number of other essential compounds in cells.
(§7) Using the technique described by Kandutsch and Chen in the article cited in the previous example, the concentrations of various 15-oxygenated sterols required to reduce the levels of activity of HMG-CoA reductase by 50% was determined in the cells of the L cells in culture and of the primary cultures of liver cells.

The test system of assay [4] is HMG-CoA reductase. Nature of the assay: Reduction of the activity of HMG-CoA reductase in primary cultures of liver cells. The format is cell-based, mouse. Particulars: read-out: Concentrations Required for 50% Reduction of the Activity of HMG-CoA Reductase. On the procedure:
as §2, §3, §5, §6, §7

The subject of assay [5] is sterol biosynthesis in L cells. Particulars: L cell cultures; as reported by Kandutsch and Chen; read-out: Concentrations Required for 50% Inhibition of Sterol Synthesis; cited from earlier work.
Assay [6] relates to sterol biosynthesis in primary cultures of mouse liver cells. Particulars: primary cultures of liver cells, cited from earlier work; for IC50: as reported by Kandutsch and Chen, read-out: Concentrations Required for 50% Inhibition of Sterol Synthesis.

Consider `CC(C)CCC[C@@H](C)[C@H]1CC(=O)[C@@]2(C)C3=CC[C@H]4C[C@@H](O)CC[C@]4(C)[C@H]3CC[C@]12C` [14α-Methyl-5α-cholest-7-en-3β-ol-15-one, 14α-methyl-5α-cholest-7-en-3β-ol-15-one], for which the IC50 was found to be 0.3 µM in assay [1], 4.5 µM in assay [2], 0.3 µM in the assay with HMG-CoA reductase [3] and 2.8 µM in the assay with HMG-CoA reductase [4].

As to `CC[C@@]12C(=O)C[C@H]([C@H](C)CCCC(C)C)[C@@]1(C)CC[C@H]1C2=CC[C@H]2C[C@@H](O)CC[C@@]21C` [14α-Ethyl-5α-cholest-7-en-3β-ol-15-one, 14α-ethyl-5α-cholest-7-en-3β-ol-15-one], the IC50 in assay [1] came to 0.3 µM; in assay [2] it was 2.1 µM; with HMG-CoA reductase [3], 1.9 µM; with HMG-CoA reductase [4], 2.1 µM.

Regarding `CC(C)CCC(=O)[C@@H](C)[C@H]1CC[C@H]2[C@@H]3CC=C4C[C@@H](O)CC[C@]4(C)[C@H]3CC[C@]12C` [Cholest-5-en-3β-ol-22-one], the IC50 in assay [5] is 1.7 µM; in assay [6], 37 µM.

Regarding `CC(C)CCC[C@@H](C)[C@H]1CC[C@H]2[C@@H]3CC=C4C[C@@H](O)CC[C@]4(C)[C@H]3CC[C@]12C` [Cholesterol], in assay [6], the IC50 is greater than 5200 µM and the “activity in the liver cell culture system (in words)” value was “inactive”.

Consider `CC(C)CCC[C@@H](C)[C@H]1C[C@H](O)[C@@]2(C)C3=CC[C@H]4C[C@@H](O)CC[C@]4(C)[C@H]3CC[C@]12C` [14α-Methyl-5α-cholest-7-en-3β,15α-diol], for which the IC50 in assay [1] was determined as 0.3 µM; in assay [2], 1.8 µM; in the assay with HMG-CoA reductase [3], 0.3 µM; in the assay with HMG-CoA reductase [4], 2 µM.

Regarding `CC(C)CCC(O)[C@@H](C)[C@H]1CC[C@H]2[C@@H]3CC=C4C[C@@H](O)CC[C@]4(C)[C@H]3CC[C@]12C` (stereo partly drawn) [Cholest-5-en-3β,22α-diol], the IC50 in assay [5] is 3.7 µM; in assay [6], 6 µM.

Take `CC(C)CCC[C@@H](C)[C@H]1C[C@@H](O)C2=C3CC[C@H]4C[C@@H](O)CC[C@]4(C)[C@H]3CC[C@@]21C` [5α-Cholest-8(14)-en-3β,15β-diol]: the IC50 in assay [1] amounted to 1.8 µM; in assay [2] it was 10.3 µM; in the assay with HMG-CoA reductase [3], 2.5 µM; in the assay with HMG-CoA reductase [4], 16.1 µM.

In the case of `CC(C)CCC[C@@H](C)[C@H]1C[C@@H](O)[C@@]2(C)C3=CC[C@H]4C[C@@H](O)CC[C@]4(C)[C@H]3CC[C@]12C` [14α-Methyl-5α-cholest-7-en-3β,15β-diol], the IC50 in assay [1] worked out at 0.5 µM; in the assay with HMG-CoA reductase [3], 1.2 µM; in the assay with HMG-CoA reductase [4] it was 4.3 µM.

As for `CO[C@H]1CC[C@@]2(C)[C@@H](CC=C3[C@@H]2CC[C@]2(C)[C@@H]([C@H](C)CCCC(C)C)C[C@H](O)[C@@]32C)C1` [3β-methoxy-14α-methyl-5α-cholest-7-en-15α-ol], the IC50 was 0.3 µM in assay [1], 1.9 µM in assay [2], 3 µM with HMG-CoA reductase [3] and 1.6 µM in the assay with HMG-CoA reductase [4].

Regarding `CC(C)CCC[C@@H](C)[C@H]1C[C@H](O)[C@@H]2C3=CC[C@H]4C[C@@H](O)CC[C@]4(C)[C@H]3CC[C@]12C` [5α,14β-Cholest-7-en-3β,15α-diol, 5α,14β-cholest-7-en-3β,15α-diol], the IC50 in assay [1] came out at 3.2 µM; in assay [2], 7.5 µM; in the assay with HMG-CoA reductase [3] it was 6.7 µM; with HMG-CoA reductase [4] it was 12.5 µM.

For the compound `CC(C)CCC[C@@H](C)[C@H]1C[C@@H](O)[C@@H]2C3=CC[C@H]4C[C@@H](O)CC[C@]4(C)[C@H]3CC[C@]12C` [5α,14β-Cholest-7-en-3β,15β-diol, 5α,14β-cholest-7-en-3β,15β-diol], the IC50 in assay [1] came to 1 µM; in assay [2] it was 2.5 µM; in the assay with HMG-CoA reductase [3] it was 4.5 µM; in the assay with HMG-CoA reductase [4] it was 6 µM.

For the compound `CC[C@]12C3=CC[C@H]4C[C@@H](OC(C)=O)CC[C@]4(C)[C@H]3CC[C@]1(C)[C@@H]([C@H](C)CCCC(C)C)C[C@H]2O` [3β-acetoxy-14α-ethyl-5α-cholest-7-en-15β-ol], the values for the IC50 (in assay [1]; in the assay with HMG-CoA reductase [3]) were 0.03 µM and 0.13 µM, respectively.

On to `CC(C)CCC[C@@H](C)[C@H]1CC(O)C2=C3C(O)C[C@H]4C[C@@H](O)CC[C@]4(C)[C@H]3CC[C@@]21C` (stereo partly drawn) [5α-cholest-8(14)-en-3β,7ε,15ε-triol], for which the IC50 is 5 µM in assay [1] (L cell cultures), 4.8 µM in assay [2] (primary cultures of liver cells), 1.9 µM in the assay with HMG-CoA reductase [3] and 18 µM in the assay with HMG-CoA reductase [4].

On to `CO[C@H]1CC[C@@]2(C)[C@@H](CC=C3[C@@H]2CC[C@]2(C)[C@@H]([C@H](C)CCCC(C)C)C[C@@H](O)[C@@]32C)C1` [3β-methoxy-14α-methyl-5α-cholest-7-en-15β-ol], for which the IC50 in assay [1] was determined as 1.4 µM; in assay [2] it was 3.5 µM; in the assay with HMG-CoA reductase [3], 3.7 µM; in the assay on HMG-CoA reductase [4] it was 3.5 µM.

The values above are taken from patent US4202891A, “15-Oxygenated sterol compounds and the use of such compounds to inhibit the biosynthesis of sterols” (priority 1977, dated 1980).
